Earlier results, collected in US7517693B2, “Method and apparatus for determining a molecular descriptor of absorption for a candidate compound” (North Carolina State University, priority 2002, dated 2009).

How the values were obtained:
[1] = Table III calibration compounds, known literature descriptor; for logL^16 (solute gas-hexadecane partition coefficient): 25° C.
[2] = Table IV study compounds

| Structure (SMILES) | α (effective solute H-bond acidity) [1] | β (effective solute H-bond basicity) [1] | π (effective solute dipolarity and polarizability) [1] | logKo/w [2] | logL^16 (solute gas-hexadecane partition coefficient) [1] |
| --- | --- | --- | --- | --- | --- |
| ClC=CCl [1,2-Dichloroethene] | 0.11 | 0.05 | 0.61 | – | – |
| c1ncncn1 [1,3,5-triazine] | – | – | – | −1.17 | – |
| C1COCCO1 [1,4-dioxane] | – | – | – | −0.27 | – |
| CC12CCC(CC1)C(C)(C)O2 [1,8-cineole] | – | – | – | 2.74 | – |
| CCCCCCCl [1-Chlorohexane] | 0.00 | 0.10 | 0.40 | – | 3.777 |
| CCCCCCCCCl [1-Chlorooctane] | 0.00 | 0.10 | 0.40 | – | 4.772 |
| CCCCCCF [1-Fluorohexane] | 0.00 | 0.10 | 0.35 | – | 2.951 |
| CCC[N+](=O)[O-] [1-nitropropane] | – | – | – | 0.87 | – |
| OCC(F)(F)F [2,2,2-Trifluoroethanol] | 0.57 | 0.25 | 0.60 | – | 1.224 |
| Oc1ccccc1F [2-Fluorophenol] | 0.61 | 0.26 | 0.69 | – | 3.453 |
| COc1ccccc1O [2-Methoxyphenol] | 0.22 | 0.52 | 0.91 | – | 4.449 |
| N#Cc1cccc(O)c1 [3-Cyanophenol] | 0.77 | 0.28 | 1.55 | – | 5.181 |
| Oc1ccc(Cl)cc1 [4-Chlorophenol] | 0.67 | 0.20 | 1.08 | – | 4.775 |
| N#Cc1ccc(O)cc1 [4-Cyanophenol] | 0.79 | 0.29 | 1.63 | – | – |
| Oc1ccc(F)cc1 [4-Fluorophenol] | 0.63 | 0.23 | 0.97 | – | 3.844 |
| Cc1ccc([N+](=O)[O-])cc1 [4-Nitrotoluene] | 0.00 | 0.28 | 1.11 | – | 5.154 |
| Nc1ccc(C(=O)O)cc1 [4-aminobenzoic acid] | – | – | – | 0.83 | – |
| CC(=O)CC(C)C [4-methyl-2-pentanone] | – | – | – | 1.31 | – |
| Nc1ccccc1 [Aniline] | – | – | – | 0.90 | – |
| c1ccc2cc3ccccc3cc2c1 [Anthracene] | – | – | – | 4.45 | – |

| Structure (SMILES) | α (effective solute H-bond acidity) [1] | β (effective solute H-bond basicity) [1] | π (effective solute dipolarity and polarizability) [1] | logKo/w [2] | logL^16 (solute gas-hexadecane partition coefficient) [1] |
| --- | --- | --- | --- | --- | --- |
| CCNc1nc(Cl)nc(NC(C)C)n1 [Atrazine] | – | – | – | 2.61 | – |
| c1ccccc1 [Benzene] | – | – | 0.52 | – | – |
| OCc1ccccc1 [Benzyl alcohol] | 0.33 | 0.56 | 0.87 | – | 4.221 |
| CNC(=O)Oc1cccc2ccccc12 [Carbaryl] | – | – | – | 2.36 | – |
| CCOC(=O)C(O)(c1ccc(Cl)cc1)c1ccc(Cl)cc1 [Chlorobenzilate] | – | – | – | 4.74 | – |
| COc1cc(Cl)c(OC)cc1Cl [Chloroneb] | – | – | – | 3.44 | – |
| CCCCCCCCCCCCO [Compound 1-Dodecanol, 1-Dodecanol] | 0.37 | 0.48 | 0.42 | – | 6.640 |
| CCCCCO [Compound 1-Pentanol, 1-Pentanol] | 0.37 | 0.48 | 0.42 | – | 3.106 |
| CCCCCCCCCCCO [Compound 1-Undecanol, 1-Undecanol] | 0.37 | 0.48 | 0.42 | – | 6.130 |
| CCCCI [Compound 1-iodobutane, 1-iodobutane] | – | – | – | 3.08 | – |
| Oc1ccc2ccccc2c1 [Compound 2-Naphthol, 2-Naphthol] | 0.61 | 0.40 | 1.08 | – | – |
| CCCC(C)=O [Compound 2-pentanone, 2-pentanone] | – | – | – | 0.91 | – |
| Oc1ccc(I)cc1 [Compound 4-Iodophenol, 4-Iodophenol] | 0.68 | 0.20 | 1.22 | – | 5.492 |
| C1CCCCC1 [Cyclohexane] | 0.00 | 0.00 | 0.10 | – | 2.964 |
| OC1CCCCC1 [Cyclohexanol] | 0.32 | 0.57 | 0.54 | – | – |
| C1CCCCCCC1 [Cyclooctane] | 0.00 | 0.00 | 0.10 | – | 4.329 |
| COC(=O)c1c(Cl)c(Cl)c(C(=O)OC)c(Cl)c1Cl [Dacthal] | – | – | – | 4.28 | – |
| CCCCNCCCC [Di-n-butylamine] | 0.08 | 0.69 | 0.30 | – | 4.349 |
| c1ccc2c(c1)sc1ccccc12 [Dibenzothiophen] | 0.00 | 0.18 | 1.31 | – | 7.575 |
| ClCCl [Dichloromethane] | 0.10 | 0.05 | 0.57 | – | 2.019 |

| Structure (SMILES) | α (effective solute H-bond acidity) [1] | β (effective solute H-bond basicity) [1] | π (effective solute dipolarity and polarizability) [1] | logKo/w [2] | logL^16 (solute gas-hexadecane partition coefficient) [1] |
| --- | --- | --- | --- | --- | --- |
| CCOCC [Diethylether] | 0.00 | 0.45 | 0.25 | – | – |
| COC(=O)c1ccccc1C(=O)OC [Dimethyl phthalate] | 0.00 | 0.88 | 1.41 | – | – |
| CCN [Ethylamine] | 0.16 | 0.61 | 0.35 | – | 1.677 |
| CCC(=O)c1ccccc1 [Ethylphenylketone] | 0.00 | 0.51 | 0.95 | – | 4.971 |
| CCF [Fluoroethane] | 0.00 | 0.10 | 0.35 | – | 0.559 |
| Cc1c(C)c(C)c(C)c(C)c1C [Hexamethylbenzene] | 0.00 | 0.21 | 0.72 | – | 6.557 |
| CCCCCCCCCCCCN1CCCCCC1=O [Laurocapram] | – | – | – | 6.28 | – |
| Cl[C@H]1[C@H](Cl)[C@@H](Cl)[C@@H](Cl)[C@H](Cl)[C@H]1Cl [Lindane] | – | – | – | 3.72 | – |
| CO [Methanol] | 0.43 | 0.47 | 0.44 | – | 0.970 |
| COc1ccc(C(c2ccc(OC)cc2)C(Cl)(Cl)Cl)cc1 [Methoxychlor] | – | – | – | 5.08 | – |
| c1ccc2c(c1)ccc1ccccc12 [Phenanthrene] | 0.00 | 0.26 | 1.29 | – | 7.632 |
| C1CCNCC1 [Piperidine] | 0.10 | 0.69 | 0.46 | – | 3.304 |
| ClC(Cl)(Cl)Cl [Tetrachloromethane] | 0.00 | 0.00 | 0.38 | – | 2.823 |
| Sc1ccccc1 [Thiophenol] | 0.09 | 0.16 | 0.80 | – | – |
| CCOP(=O)(OCC)OCC [Triethyl phosphate] | 0.00 | 1.06 | 1.00 | – | 4.750 |
| CCN(CC)CC [Triethylamine] | 0.00 | 0.79 | 0.15 | – | 3.040 |
| CN(C)C [Trimethylamine] | 0.00 | 0.67 | 0.20 | – | 1.620 |
| CCCCN [n-Butylamine] | 0.16 | 0.61 | 0.35 | – | – |
| Cc1ccccc1O [o-Cresol] | 0.52 | 0.30 | 0.86 | – | 4.218 |
